{"source": "ChEMBL document CHEMBL1151356", "about": "“An investigation of the antitumor activity of Sesbania drummondii” (1981)", "tested_on": "P388", "test": "In vivo cytotoxicity against mouse P388 cells up to 1.4 mg/kg relative to control", "type": "functional, organism-based", "design": "dose 1.4 mg/kg", "note": "Activity calls are given as the source filed them. No cut-off for these calls is given here.", "data": [{"molecule": "O=C1NC(=O)[C@@]2(CC[C@@H](O)C2)c2ccncc21", "values": [{"measurement": "Activity", "value": "inactive"}]}]}
